Like-named read-outs stand apart in the source and are kept apart here.
Experiments:
[1] = system: CYP6M2, CYP6P3 and CYP6P9a; experiment: Pyrethroid metabolism (insecticide depletion), across CYP6M2, CYP6P3 and CYP6P9a; assay type: in vitro ADME, Anopheles gambiae and An. funestus; conditions: mean ± SD across CYP6M2, CYP6P3, CYP6P9a
Text: (§1) In this study, the half maximal inhibitory concentration (IC50), which provides a value for inhibition of each P450 by each pyrethroid (also referred to as ‘binding affinity’), and the percentage depletion, which gives a value for metabolism of each pyrethroid by each P450 (also referred to as vulnerability to metabolic attack), were both included as parameters to establish a P450s structural activity relationship model. This model was used to understand both the chemistry of the pyrethroids and the interaction with mosquito P450s that function as monooxygenases in metabolic resistance, to predict cross-resistance liabilities in vivo. […] A low percentage depletion indicates low metabolism of the pyrethroid, which means that it may be less vulnerable to resistance mediated by P450s.
The values for percentage depletion (metabolism) of each pyrethroid by three of the enzymes CYP6M2, CYP6P3 and CYP6P9a, which were expressed in a single plasmid construct, were also extracted from the same sources and used for the comparative analysis.

[2] = system: An. funestus strain, FUMOZ-R; parameters: method as in PMID 26930058; conditions: strain with upregulated P450 levels without any target-site mutations; ref [47]; cited from earlier work
CYP6M2 = conditions: Incubation time 2h; mean ± SD; ref [38], [41]; cited from earlier work
CYP6P3 [3] = conditions: Incubation time 2h; mean ± SD; ref [38], [41]; cited from earlier work
CYP6P9a [4] = conditions: Incubation time 2h; mean ± SD; ref [38], [41]; cited from earlier work
CYP6Z3 = target: T1, CYP6Z3 (Anopheles gambiae, UniProt Q86LT6, H411Y/S209G/W396L); experiment: Inhibition screening of pyrethroids, diethoxyfluorescein, CYP6Z3; assay type: biochemical
T1 sequence (Q86LT6 1-492 S209G/W396L/H411Y): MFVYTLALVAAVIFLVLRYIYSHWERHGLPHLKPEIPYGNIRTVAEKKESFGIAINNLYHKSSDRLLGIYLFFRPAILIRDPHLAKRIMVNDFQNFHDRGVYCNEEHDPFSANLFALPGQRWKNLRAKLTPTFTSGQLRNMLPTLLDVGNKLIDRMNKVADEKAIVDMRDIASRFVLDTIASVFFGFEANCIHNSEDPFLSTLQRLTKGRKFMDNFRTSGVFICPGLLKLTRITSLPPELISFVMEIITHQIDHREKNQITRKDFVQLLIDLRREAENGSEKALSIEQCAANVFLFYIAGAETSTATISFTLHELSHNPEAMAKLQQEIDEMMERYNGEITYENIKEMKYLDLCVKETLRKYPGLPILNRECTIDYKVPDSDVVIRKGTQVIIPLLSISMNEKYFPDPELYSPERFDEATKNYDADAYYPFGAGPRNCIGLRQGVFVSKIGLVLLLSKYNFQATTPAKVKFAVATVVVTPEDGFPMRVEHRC
T1 sequence (Q86QH5 1-679 partner): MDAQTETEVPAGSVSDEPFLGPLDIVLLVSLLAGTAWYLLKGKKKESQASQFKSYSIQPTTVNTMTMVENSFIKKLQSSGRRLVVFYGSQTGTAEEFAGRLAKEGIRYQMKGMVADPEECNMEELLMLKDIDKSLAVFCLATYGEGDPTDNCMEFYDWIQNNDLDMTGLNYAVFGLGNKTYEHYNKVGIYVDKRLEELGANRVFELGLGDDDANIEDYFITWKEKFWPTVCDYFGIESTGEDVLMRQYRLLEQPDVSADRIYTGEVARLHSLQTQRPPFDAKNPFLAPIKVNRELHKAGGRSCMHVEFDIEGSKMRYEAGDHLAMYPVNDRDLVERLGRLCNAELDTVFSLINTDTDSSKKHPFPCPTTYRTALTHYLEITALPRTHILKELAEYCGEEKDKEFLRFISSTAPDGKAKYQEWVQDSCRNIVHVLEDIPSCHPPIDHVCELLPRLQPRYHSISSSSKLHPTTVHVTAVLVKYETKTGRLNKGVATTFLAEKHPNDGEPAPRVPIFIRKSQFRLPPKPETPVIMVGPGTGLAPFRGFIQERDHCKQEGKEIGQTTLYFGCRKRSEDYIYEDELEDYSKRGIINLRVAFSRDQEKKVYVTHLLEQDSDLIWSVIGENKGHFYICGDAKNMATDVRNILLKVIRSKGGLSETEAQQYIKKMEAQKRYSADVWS
Text: as §1, with “Cytochrome P450 inhibition assays using fluorogenic probe substrates have become commonplace in drug discovery screening cascades and are a rapid method of screening for insecticide interactions with mosquito P450s to predict insecticide binding, metabolism, cross-resistance and synergism. In” for “In”
(§2) In addition, inhibition activity data for these pyrethroids exposed to CYP6Z3 from the An. gambiae Kisumu strain were also generated (Additional file 1).
1. Preparation of An. gambiae CYP6Z3 and cloning
Total RNA was extracted with Arcturus PicoPure Kit (Applied Biosystems, USA) from ten adult An. gambiae mosquitoes from the Kisumu strain [1]. Complementary DNA was prepared using Superscript III (Invitrogen) with an oligo (dT)20 primer and used as a template for amplifying full -length AgCyp6z3 with KOD DNA polymerase (Merk Chemicals) . The gene-specific primers used in these high -fidelity PCRs (Table S1) were designed according to the reference An. gambiae PEST CYP6Z3 genome sequence (Accession number AY193727) The PCR product was ligated into pGEM T-easy vector (Promega) and sequenced on both strands. Consistent with the high frequency of polymorphism in An. gambiae P450s [2](Martin Nature Ref) there were 36 single nucleotide polymorphism (SNPs) compared with the reference sequence, of which three produced amino acid changes, S209G, W396L, and H411Y. For expression, the ompA leader sequence (ompA) was engineered onto the amino - terminus of the AgCyp6z3 gene to direct the P450 into the E. coli […] during expression as previously described. The ompA-leader was fused to AgCyp6z3 cDNA in frame with AgCyp6z3 initiation codon by fusion PCR using High fidelity Phusion polymerase (Scientific). The ompA AgCyp6z3 fusion was flanked at the 5′ and 3′ ends with NdeI and EcoR1, respectively for ligation into NdeI/EcoRI linearised pB13 (pCWori+).
Table S1. Primers used for amplification of CYP6Z3 and in vitro functional characterisation […]
ompA+2 Forward […]
ompA+2 CYP6Z3 fusion […]
2. Preparation of membranes expressing P450 and AgCPR
To express functional P450, AgCyp6z3 cloned into pB13 plasmid was co-transformed into E. coli JM109 cells with An. gambiae NADPH-cytochrome P450 reductase (AgCPR-pACYC). The P450 and the AgCPR were previously fused with ompA and pelB leader sequences respectively to direct the expressed proteins to the inner bacterial periplasm in order to form functional monooxygenase complex. For P450 production, 200 mL E. coli cultures in Terrific Broth were incubated at 21°C with shaking at 120 RPM for 18–24 h after induction with 1 mM IPTG. Following expression, E. coli membranes containing CYP6Z3 were isolated and P450 and AgCPR content measured as previously described. Samples were stored in aliquots of 100 µL at −80°C. An. gambiae cytochrome b5 was prepared as described previously to supplement enzyme reactions at an 8:1 M ratio, b5: P450 [4].
3. Inhibition screening of pyrethroids.
Inhibition screening of pyrethroid inhibitors and IC50 calculations carried out according Yunta et al. […]

CYP6Z2 = target: T2, CYP6Z2 (Anopheles gambiae, UniProt Q7PNB5); experiment: Inhibition screening of pyrethroids, diethoxyfluorescein, CYP6Z2; assay type: biochemical
T2 sequence (Q7PNB5 1-492): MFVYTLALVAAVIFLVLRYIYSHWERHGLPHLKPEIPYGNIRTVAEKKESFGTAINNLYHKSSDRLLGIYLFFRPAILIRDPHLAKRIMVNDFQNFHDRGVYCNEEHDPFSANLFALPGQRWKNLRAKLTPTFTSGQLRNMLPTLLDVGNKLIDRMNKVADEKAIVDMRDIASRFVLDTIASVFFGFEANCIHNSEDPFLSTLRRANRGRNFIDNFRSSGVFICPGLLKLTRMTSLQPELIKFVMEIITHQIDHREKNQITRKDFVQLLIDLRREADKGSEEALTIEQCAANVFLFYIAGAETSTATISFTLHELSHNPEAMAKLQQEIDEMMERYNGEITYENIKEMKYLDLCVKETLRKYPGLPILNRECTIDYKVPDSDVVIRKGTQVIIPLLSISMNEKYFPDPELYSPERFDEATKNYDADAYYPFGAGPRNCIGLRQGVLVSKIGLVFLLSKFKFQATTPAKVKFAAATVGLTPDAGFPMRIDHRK
T2 sequence (Q86QH5 1-679 partner): T1 sequence (Q86QH5 1-679 partner)

[5] = system: P450 panel (CYP6M2, CYP6P3, CYP6P9a, CYP6P2, CYP9J5, CYP6Z3, CYP6Z2); experiment: P450 inhibition, whole P450 panel (mean across P450s); assay type: biochemical, Anopheles gambiae and An. funestus; conditions: Anopheles gambiae and Anopheles funestus
Text: as §1, with “Cytochrome P450 inhibition assays using fluorogenic probe substrates have become commonplace in drug discovery screening cascades and are a rapid method of screening for insecticide interactions with mosquito P450s to predict insecticide binding, metabolism, cross-resistance and synergism. In” for “In”
as §2

CYP6P3 [6] = conditions: read-out: IC50 CYP6P3; inhibition of diethoxyfluorescein metabolism; footnote b; ref Yunta et al. 2019[10]; cited from earlier work
CYP6P9a [7] = conditions: read-out: IC50 CYP6P9a; inhibition of diethoxyfluorescein metabolism; footnote b; ref Yunta et al. 2019[10]; cited from earlier work
CYP6P2 = conditions: read-out: IC50 CYP6P2; inhibition of diethoxyfluorescein metabolism; footnote b; ref Yunta et al. 2019[10]; cited from earlier work
CYP9J5 = conditions: read-out: IC50 CYP9J5; inhibition of diethoxyfluorescein metabolism; footnote b; ref Yunta et al. 2019[10]; cited from earlier work
Gambiae Complex = conditions: ID 100156; F0, larval collection, 5/2009-4/2010, Chano, Ethiopia; WHO Bioassay 1998; ref Massebo F et al. Parasites Vectors. 2013;6; cited from earlier work
Anopheles arabiensis = conditions: F0, larval collection, Sudan, WHO Bioassay 1998, ref Abdalla H et al. Parasites Vectors. 2014;7:213, cited from earlier work

| Compound | effectiveness with or without piperonyl butoxide (PBO), in words [2] | mortality (Anopheles arabiensis; 10/2009-11/2009, El Managil) | mortality (Anopheles arabiensis; 10/2009-11/2009, Rufaa) | mortality (Anopheles arabiensis; 10/2009-11/2009, Wad El Hadad) | mortality (Anopheles arabiensis; 10/2010-11/2010, Wad El Hadad) | mortality (Anopheles arabiensis; 10/2010-11/2010, Wad Medani) | other results |
| --- | --- | --- | --- | --- | --- | --- | --- |
| CC1(C)C(C=C(Cl)Cl)C1C(=O)OC(C#N)c1cccc(Oc2ccccc2)c1 (centres unmarked) [Cypermethrin] | only effective when partnered with PBO |  |  |  |  |  | % Insecticide depletion Mean across P450s [1]: 74.9 ± 33.3%; % Insecticide depletion CYP6M2 (CYP6M2): 36.8 ± 1.8%; % Insecticide depletion CYP6P3 (CYP6P3 [3]): 98.4 ± 0.1%; % Insecticide depletion CYP6P9a (CYP6P9a [4]): 89.5 ± 2.7% |
| CC1(C)C(C=C(Cl)Cl)C1C(=O)OC(C#N)c1cccc(Oc2ccccc2)c1 (stereo not drawn) [⍺-cypermethrin, α-cypermethrin] |  |  |  |  |  |  | IC50 (CYP6Z3): 4.4 µM; IC50 (CYP6Z2): 8.6 µM; IC50 [5]: 6.4 µM; IC50 (CYP6P3 [6]): 2.6 µM; IC50 (CYP6P9a [7]): 4.2 µM; IC50 (CYP6P2): 9.8 µM; IC50 (CYP9J5): 13.5 µM; mortality (Gambiae Complex): 50 |
| Clc1ccc(C(c2ccc(Cl)cc2)C(Cl)(Cl)Cl)cc1 [DDT, dichlorodiphenyltrichloroethane] |  | 93 | 58 | 74 | 69 | 70 |  |
| COP(=S)(OC)Oc1ccc([N+](=O)[O-])c(C)c1 [feni, fenitrothion] |  | 100 | 100 | 100 | 100 | 100 |  |
| CNC(=O)Oc1cccc2c1OC(C)(C)O2 [bend, bendiocarb] |  | 100 | 100 | 100 | 100 | 100 |  |
| CC1(C)C(C=C(Cl)Cl)C1C(=O)OC(C#N)c1ccc(F)c(Oc2ccccc2)c1 (centres unmarked) [ß-cyfluthrin] | only effective when partnered with PBO |  |  |  |  |  |  |
